{"source": "patent US20220002700A1", "about": "“COMPUTATIONALLY-OPTIMIZED ACE2 PEPTIDES FOR COMPETITIVE INTERCEPTION OF SARS-CoV-2” (priority 2020, published 2022)", "key": {"[1]": {"biological_target": "RBD-sfGFP (SARS-CoV-2 RBD fused to superfolder GFP) (Severe acute respiratory syndrome coronavirus 2, UniProt P0DTC2)"}, "[2]": {"tested_on": "S protein-pseudotyped virus", "type": "cell-based, SARS-CoV-2"}}, "note": "Where no end group is shown, it is not given here.", "data": [{"substance": "QAKTFLDKFNHEAEDLFYQSSLA [sACE2 peptide variant 2]", "values": [{"measurement": "reduction (depletion) of GFP+ cells", "setting": "[1]", "value": "~20", "unit": "%"}]}, {"substance": "23-mer (A2N) (QNKTFLDKFNHEAEDLFYQSSLA; also: fused to a dimerising Fc or GST)", "values": [{"measurement": "degradation in TRIM21 assay compared with other architectures", "setting": "[1]", "value": "improving on both the sACE2 and 23-mer architecture as well as that of a previously optimized full- length mutant, sACE2v2.4"}, {"measurement": "reduction (depletion) of GFP+ cells", "setting": "[1]", "value": "over 50%"}, {"measurement": "difference in pseudoviral infection competency with addition of exogenous peptide", "setting": "[2]", "value": "Minimal difference"}]}]}
